Data as given in patent US20260345555A1, “Compositions and Methods for Protecting Salivary Glands from Off-Target Radiation Damage” (University of Rochester, priority 2022, published 2026).
Structures can show the parent of a compound that is named as a salt. Where two headings read alike, the source gives them in different places.

What was measured:
[1] = tested on: Reduced glutathione in salivary gland cell clusters (SGm); test: Glutathione assay in salivary gland tissue chip, 4 days post-radiation (15 Gy); also first screen of Selleck library at 100 μM; format: cell-based, mouse; conditions: for Glutathione normalized mean intensity: first screen of Selleck library at 100 μM; for hit in the drug screen: glutathione assay first screen, 100 μM; for Estimated EC50, Glutathione: nonlinear fit in Prism of dose response curves; as to Glutathione (radioprotection): key: +: radioprotection; ~: partial radioprotection; —: no radioprotection
Source text: (§1) A salivary gland tissue chip was leveraged for high-content drug screening to identify novel radioprotective compounds (Song Y et al., Commun Biol., 2021, 4). The chip platform consists of an array of near-spherical microbubble (MB) cavities formed in poly(dimethylsiloxane) (PDMS). Each chip, containing ~50 MBs, affixed within wells of a 96-well plate (FIG. 1C). Primary salivary gland cell clusters (FIG. 1A), suspended in a poly(ethylene glycol) (PEG) hydrogel precursor and MMP-degradable peptide crosslinker solution together with the photoinitiator LAP, were applied to the chip allowing the clusters to deposit into the MBs (FIG. 1D). In situ polymerization of the hydrogel was achieved using long-wave, low intensity UV light. Over time, the cell clusters aggregate and proliferate to form SGm (FIG. 1C).
The glutathione assay was used to measure glutathione levels at various time points post-radiation to determine the optimal time point for detecting differences between 0 Gy and 15 Gy. Based on the data, the greatest signal separation was measured at 4 days post-irradiation (FIG. 9). This timepoint is similar to previous reports on decreases in glutathione post-radiation and was used for all experiments moving forward (Meeks L et al., Physiological Genomics, 2021, 53: 85-98).
The dose response to WR-1065 was examined to determine effective concentrations of WR-1065 to prevent the reduction of glutathione levels post-radiation. A SGm tissue chip was cultured for 4 days to allow spheres to form. The chip was then treated with WR-1065 30 minutes before and during radiation, followed by drug wash out with media 30 minutes post-radiation (FIG. 2A). This dosing scheme is consistent with the use of Amifostine clinically and with previous work. The glutathione assay was performed at 4 days post-radiation (FIG. 2A). […] Moreover, it is clinically relevant as 15-30 minutes before radiation, patients are administered Amifostine intravenously at 200 mg/m (Escobar A et al., IntechOpen, 2019, pp. 15-37; Eisbruch A, J Clin Oncol, 2011, 29: 119-121; Bardet, E. et al. Semin Oncol, 2002, 29, 57-60). Assuming an average adult body surface area of 17,000 cm^2 and a blood volume of 1.35 gallons (5.1 liters), Amifostine is administered at 300 μM (Mosteller, R. D. N Engl J Med 317, 1098 (1987)).
The glutathione and senescence assays were used to screen a library of FDA-approved drugs (Selleck Chemicals) at 100 μM. Drugs were first screened using the glutathione assay according to the timeline depicted in FIG. 2A. Any compound resulting in statistically similar glutathione levels compared to 0 Gy control was considered a hit (FIG. 4, grey circles). Hits with the glutathione assay were then tested with the senescence assay and considered a “double hit” if senescence levels were statistically similar to levels at 0 Gy (FIG. 4, black circles). […] While this hit rate is higher than many other drug screening reports (0.1-0.3%), this may be due to the statistical rigor afforded by the tissue chip format (Blanchard, C et al., Antimicrob Agents Chemother 2016, 60, 862-872; Colquhoun, J. M et al., Antibiotics (Basel) 2019, 8, 48). Additionally, phenotypic screens generally have higher hit rates than target-based screens (>1%) (Moffat, J. G et al., Nature Reviews Drug Discovery 2017, 16, 531-543; Rottman, M et al., Science 2010, 329, 1175-1180).
Mice were euthanized and the submandibular glands (SMG) were removed and chopped with a razor blade for 5 min. The tissue was then incubated in Hank's buffered salt solution (HBSS) containing 15 mM HEPES, 50 U/mL collagenase type II (Thermo Fischer 17101015), and 100 U/mL hyaluronidase (Sigma Aldrich H3506) at 37 °C for 30 min. Cells were centrifuged, then resuspended in HBSS with 15 mM HEPES and passed through 100 μm and 20 μm mesh filters to isolate clusters between 20-100 μm. The digestion protocol produces cell cluster sizes evenly distributed between 20 to 100 μm (Song, Y et al., Advanced Healthcare Materials). […]

[2] = tested on: senescence-associated β-galactosidase in salivary gland cell clusters (SGm); test: Cellular senescence assay (SPiDER-βGal) in salivary gland tissue chip, 5 days post-radiation (15 Gy); also second screen of library hits at 100 μM; format: cell-based, mouse; conditions: for Senescence normalized mean intensity: second screen of library hits at 100 μM, 5 days post-radiation, only drugs nonsignificant compared to 0 Gy in the glutathione assay; for Senescence normalized mean intensity / radioprotection in dose response, senescence assay: 15 Gy; as to Senescence (radioprotection): key: +: radioprotection; ~: partial radioprotection; —: no radioprotection
Source text: as §1, with “The” for “A salivary gland tissue chip was leveraged for high-content drug screening to identify novel radioprotective compounds (Song Y et al., Commun Biol., 2021, 4). The”
For senescence, a protocol similar to the glutathione assay was followed to determine the optimal time point post-radiation for detecting a change in senescence between 0 Gy and 15 Gy, as measured by senescence-associated β-galactosidase activity.
The glutathione and senescence assays were used to screen a library of FDA-approved drugs (Selleck Chemicals) at 100 μM. Drugs were first screened using the glutathione assay according to the timeline depicted in FIG. 2A. […] Hits with the glutathione assay were then tested with the senescence assay and considered a “double hit” if senescence levels were statistically similar to levels at 0 Gy (FIG. 4, black circles).
Mice were euthanized and the submandibular glands (SMG) were removed and chopped with a razor blade for 5 min. […] Cells were centrifuged, then resuspended in HBSS with 15 mM HEPES and passed through 100 μm and 20 μm mesh filters to isolate clusters between 20-100 μm. […] The isolated clusters were combined with hydrogel precursor solution and seeded in MB array-based chips as described below.
The cell/gel precursor solution (25 μL for 48 well; 20 μL for 96 well) was pipetted onto the MB chips and incubated for 30 min, pipetting every 10 min to redisperse cells that had settled onto the surface of the chip.
A cellular senescence assay for the chips was developed by adapting the Cellular Senescence Detection Kit—SPiDER-βGal (Dojindo Molecular Technologies, Inc. SG04). Bafilomycin A1 and SPiDER-βGal stock solutions were prepared in DMSO per manufacturer directions. The assay was performed by first incubating the chips with bafilomycin A1 (1:1000 dilution in media) for 1 hr at 37 °C. […] Chips were washed twice with media and imaged using a fluorescence microscope with a Texas Red filter (Excitation: 580 nm; Emission: 604 nm).
For radioprotection experiments, SGm were cultured in MB-hydrogel chips for 4 days, then drugs were added to the chips 30 min prior to irradiation and washed out with media 30 min post-radiation treatment. […] The glutathione and senescence assays were performed at 4- and 5-days post-radiation. For assay validation experiments, at least 3 chips (N=3) were used for each drug, corresponding to >100 MBs (n>100); these values are listed in the figure description for each experiment. Mean, standard deviation, and statistics were calculated based on the number of MBs (n).
For screening of the Selleck Chemicals compound library, the same treatment scheme was used, with drugs administered at 100 μM. One MB chip (N=1) was used per compound, with ~40-50 MBs per chip […]; statistics were calculated using the number of MBs (n) and compared to 0 Gy controls.
For both the glutathione and cellular senescence assays, images were quantified in ImageJ.

[3] = tested on: lymphocyte cells; conditions: viability of lymphocytes as primary readout; cited from earlier work
[4] = Mus musculus, light or radiation study, 120 h, read-out: reduction in senescence

Compound	Glutathione normalized mean intensity ([1]; 15 Gy, 4 days post-radiation)	Senescence normalized mean intensity [2]	also measured
NC(N)=NC(=O)c1nc(Cl)c(N)nc1N [Amiloride hydrochloride (Midamor)]	1.018	1.487	–
CC1COc2c(N3CCN(C)CC3)c(F)cc3c(=O)c(C(=O)O)cn1c23 (stereo not shown) [ofloxacin]	–	–	hit in the drug screen [1]: not hits; radioprotection of lymphocytes [3]: radioprotectors
O=NN(CCCl)C(=O)NC1CCCCC1 [Lomustine (CeeNU)]	0.9042	1.023	–
CN1CCC[C@@H]1CCO[C@](C)(c1ccccc1)c1ccc(Cl)cc1 [Clemastine Fumarate]	1.106	1.237	–
COc1c(N2C[C@@H]3CCCN[C@@H]3C2)c(F)cc2c(=O)c(C(=O)O)cn(C3CC3)c12 [moxifloxacin]	–	–	radioprotection of lymphocytes [3]: radioprotectors
CCOC(=O)C(C)(C)Oc1ccc(Cl)cc1 [Clofibrate (Atromid-S)]	1.009	1.714	–
CN(C)CCC(c1ccc(Cl)cc1)c1ccccn1 (stereo not shown) [Chlorpheniramine Maleate]	1.145	1.308	–
COC(=O)Nc1nc2cc(C(=O)c3ccc(F)cc3)ccc2[nH]1 [Flubendazole (Flutelmium)]	1.065	1.444	–
Meropenem	–	–	concentration range of radioprotection, glutathione assay ([1]; dose response, 15 Gy): 0.1 to 100 µM; Estimated EC50, Glutathione ([1]; 15 Gy): 100 nM; radioprotection in dose response, senescence assay [2]: only partial protection; double hit in the drug screen ([2]; glutathione and senescence assays, 100 μM, statistically similar to 0 Gy): double hits
CC(=O)N[C@@H](CS)C(=O)O [N-acetylcysteine]	–	–	prevention of radiation-induced reduction of glutathione levels ([1]; 1 mM, 15 Gy, 4 days post-radiation): no improvement in glutathione levels; prevention of radiation-induced reduction of glutathione levels ([1]; 4 mM, 15 Gy, 4 days post-radiation): no improvement in glutathione levels; radioprotection using the glutathione assay ([1]; 10 mM): partial radioprotection; glutathione levels rescued ([1]; 10 mM, 15 Gy): 56%; protection against radiation-induced senescence ([2]; 10 mM): protective; inhibition at 1000 µM ([2]; Mus musculus, light or radiation study, 120 h, 1 mM, versus untreated, irradiated controls, read-out: reduction in senescence): 83%; inhibition at 4000 µM ([2]; Mus musculus, light or radiation study, 120 h, 4 mM, versus untreated, irradiated controls, read-out: reduction in senescence): 57%; inhibition at 10000 µM ([2]; Mus musculus, light or radiation study, 120 h, 10 mM, versus untreated, irradiated controls, read-out: reduction in senescence): 82%
CCn1cc(C(=O)O)c(=O)c2cc(F)c(N3CCNCC3)cc21 [norfloxacin]	–	–	hit in the drug screen [1]: not hits; radioprotection of lymphocytes [3]: radioprotectors
C[C@]12C=CC(=O)C=C1CC[C@H]1[C@@H]3C[C@@H](O)[C@](O)(C(=O)CO)[C@@]3(C)C[C@H](O)[C@@]12F [Triamcinolone (Aristocort)]	1.061	0.9883	–
CC(=O)OCC[N+](C)(C)C.[Cl-] [Acetylcholine chloride]	1.04	1.205	–
CC(C(=O)[O-])c1cccc(Oc2ccccc2)c1.CC(C(=O)[O-])c1cccc(Oc2ccccc2)c1.[Ca+2] (stereo not shown) [Fenoprofen calcium]	0.9731	1.472	–
CC1(C)CC(O)CC(C)(C)N1[O] [Tempol, 4-hydroxy-TEMPO]	–	–	Glutathione (radioprotection) [1]: +; prevention of radiation-induced reduction of glutathione levels [1]: strong radioprotection; Senescence (radioprotection) [2]: +; inhibition at 1000 µM [2, 4]: 75%; inhibition at 4000 µM [2, 4]: 91%
COc1ccccc1OCCNCC(O)COc1cccc2[nH]c3ccccc3c12 (stereo not shown) [Carvedilol]	0.9878	1.255	–
COc1cc(/C=C/C(=O)CC(=O)/C=C/c2ccc(O)c(OC)c2)ccc1O [Curcumin]	0.9059	0.8098	–
Cc1cnc(C(=O)NCCc2ccc(S(=O)(=O)NC(=O)NC3CCCCC3)cc2)cn1 [Glipizide (Glucotrol)]	–	–	radioprotection in dose response, glutathione assay ([1]; dose response, 15 Gy): protection only at higher concentrations; Estimated EC50, Glutathione ([1]; 15 Gy): 4000 nM; radioprotection in dose response, senescence assay [2]: variable protection
O=C(Nc1cccc2c(=O)cc(-c3nnn[nH]3)oc12)c1ccc(OCCCCc2ccccc2)cc1 [Pranlukast]	0.9284	1.394	–
Cc1cnc(C(=O)O)c[n+]1[O-] [Acipimox]	1.03	1.379	–
C[C@H](CCC(=O)O)[C@H]1CC[C@H]2[C@@H]3[C@H](O)C[C@@H]4C[C@H](O)CC[C@]4(C)[C@H]3CC[C@]12C [Chenodeoxycholic acid]	1.11	1.45	–
COC(=O)C1=C(C)NC(C)=C(C(=O)OC)C1c1ccccc1[N+](=O)[O-] [Nifedipine (Adalat)]	0.9216	0.9725	–
